Test results: patent publication US20060229324A1, “Quinazolin-4-one derivatives” (priority 2002, published 2006)

Legend:
[1] = target: human hematopoietic prostaglandin D2 synthase (Homo sapiens, UniProt O60760); assay: Inhibitory activity against spleen-type (hematopoietic) prostaglandin D2 synthase, [14C]PGH2 to PGD2, TLC; assay type: biochemical; conditions: for inhibition at 10 µM / inhibition at 30 µM: read-out: Inhibitory Ratio of Prostaglandin D2 (PGD2) Synthase (%)
Method: A buffer solution of 100 mM Tris (hydroxymethyl)aminomethane/HCl buffer (pH8.0) containing glutathione (0.1 mM) and human hematopoietic prostaglandin D2 synthase (adequate quantity) was preincubated at 25° C. for 5 minutes in the presence or absence of a test compound, and then 14C labeled prostaglandin H2 ([14C]PGH2) (10 μM) was added, and the buffer solution was further incubated at 25° C. for one minute. A mixture of ether, methanol, and citric acid was added to the reaction mixture, and the ether layer was developed on silica gel thin-layer chromatography (TLC) (eluent=ether: methanol: acetic acid=90:2:1), and the PGD2 produced was measured by exposure to an imaging plate. The enzyme inhibitory rates of test compounds were calculated assuming the amount of production of PGD2 without the test compound being 100%.

[2] = system: RBL-2H3, a rat basophilic leukemia cell to express hematopoietic prostaglandin D synthase; assay: Prostaglandin D2 production inhibition test using cells (A23187-induced, EIA); assay type: cell-based; conditions: RBL-2H3 cells, A23187 2.5 μM; for Inhibitory Ratio of Prostaglandin D2 (PGD2) Production (%): Drug Concentration 10 μM; for inhibition at 10 µM: Rattus norvegicus, RBL-2H3, Drug Concentration 10 μM, read-out: Inhibitory Ratio of Prostaglandin D2 (PGD2) Production (%)
Method: RBL-2H3, a rat basophilic leukemia cell to express hematopoietic prostaglandin D synthase, was inoculated in a 24 well plate and incubated overnight. After replacement with a medium in the presence or absence of a test compound, preincubation was carried out at 37° C. for one hour. After washing of the cells with PBS(-), the medium was replaced with a Hepes buffer solution (pH7.4) in the presence or absence of the test compound, and incubation was continued at 37° C. for 15 minutes. Then, calcium ionophore (A23187) at a final concentration of 2.5 μM was added, and incubation was carried out at 37° C. for 15 minutes to induce the production of PGD2. The supernatant of the cells was collected, and the amount of PGD2 flowed out in the supernatant was measured by EIA kit by Cayman. The inhibitory ratio of the production of PGD2 by the test compound was calculated assuming the amount of PGD2 produced by A23187 in the absence of the test compound as being 100%.

Sequence of human hematopoietic prostaglandin D2 synthase (O60760 whole entry): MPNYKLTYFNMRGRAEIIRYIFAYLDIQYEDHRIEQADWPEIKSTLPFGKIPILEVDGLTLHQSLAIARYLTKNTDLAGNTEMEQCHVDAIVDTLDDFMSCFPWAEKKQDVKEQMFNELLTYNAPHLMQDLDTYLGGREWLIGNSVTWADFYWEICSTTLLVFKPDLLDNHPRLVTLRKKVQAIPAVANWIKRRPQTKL

| inhibition at 10 µM ([1]; Drug Concentration 10 μM) [%] | inhibition at 30 µM ([1]; Drug Concentration 30 μM) [%] | SMILES | further results |
| --- | --- | --- | --- |
| 27 | 61 | Cc1nn(-c2ccccc2)c(O)c1/C=N/n1c(C)nc2cccc(C)c2c1=O [Compound 33, 2,5-dimethyl-3-[(5-hydroxy-3-methyl-1-phenylpyrazol-4-yl)methylidene]amino-3,4-dihydroquinazolin-4-one] |  |
| 19 | 30 | O=c1c2ccccc2nc(CO)n1/N=C/c1c(C(F)(F)F)nn(-c2ccccc2)c1O [Compound 28] |  |
| 15 | 68 | Cc1nn(-c2ccccc2)c(O)c1/C=N/n1c(C)nc2ccc(Cl)cc2c1=O [Compound 35, 6-chloro-3-[(5-hydroxy-3-methyl-1-phenylpyrazol-4-yl)methylidene]amino-2-methyl-3,4-dihydroquinazolin-4-one] |  |
| 39 | 60 | Cc1nn(-c2ccccc2)c(O)c1/C=N/n1c(C)nc2cc(Cl)ccc2c1=O [Compound 36, 7-chloro-3-[(5-hydroxy-3-methyl-1-phenylpyrazol-4-yl)-methylidene]amino-2-methyl-3,4-dihydroquinazolin-4-one] |  |
| 20 | 51 | COc1cc2nc(C)n(/N=C/c3c(C)nn(-c4ccccc4)c3O)c(=O)c2cc1OC [Compound 38, 6,7-dimethoxy-3-[(5-hydroxy-3-methyl-1-phenylpyrazol-4-yl)-methylidene]amino-2-methyl-3,4-dihydroquinazolin-4-one] |  |
| 71 | 84 | Cc1nn(-c2ccccc2)c(O)c1/C=N/n1c(C)nc2c(C)cccc2c1=O [Compound 34, 2,8-dimethyl-3-[(5-hydroxy-3-methyl-1-phenylpyrazol-4-yl)methylidene]amino-3,4-dihydroquinazolin-4-one] |  |
| 86 | 71 | Cc1nn(-c2ccccc2)c(O)c1/C=N/n1c(CO)nc2ccccc2c1=O [Compound 26, 3-[(5-hydroxy-3-methyl-1-phenylpyrazol-4-yl)methylidene]-amino-2-hydroxymethyl-3,4-dihydroquinazolin-4-one] |  |

The remaining lines, values behind:

| SMILES | inhibition at 10 µM ([1]; Drug Concentration 10 μM) [%] | inhibition at 30 µM ([1]; Drug Concentration 30 μM) [%] | further results |
| --- | --- | --- | --- |
| Cc1nn(-c2ccccc2)c(O)c1/C=N/n1c(C(C)C)nc2ccccc2c1=O [Compound 22, 3-[(5-hydroxy-3-methyl-1-phenylpyrazol-4-yl)methylidene]-amino-2-isopropyl-3,4-dihydroquinazolin-4-one] | 14 | 44 |  |
| Cc1nn(-c2ccccc2)c(O)c1C=NN1C(=O)c2ccccc2NC1CO (stereo not drawn) [Compound 39, 3-[(5-hydroxy-3-methyl-1-phenylpyrazol-4-yl)methylidene]-amino-2-hydroxymethyl-1,2,3,4-tetrahydroquinazolin-4-one] |  |  | Inhibitory Ratio of Prostaglandin D2 (PGD2) Synthase (%) ([1]; Drug Concentration 10 μM): 77%; Inhibitory Ratio of Prostaglandin D2 (PGD2) Synthase (%) ([1]; Drug Concentration 30 μM): 46%; Inhibitory Ratio of Prostaglandin D2 (PGD2) Production (%) [2]: 70% |
| CCc1nc2ccccc2c(=O)n1/N=C/c1c(C)nn(-c2ccccc2)c1O [Compound 21] | 13 | 51 |  |
| CCc1nn(-c2ccccc2)c(O)c1/C=N/n1c(C)nc2ccccc2c1=O [Compound 6, 3-[(3-ethyl-5-hydroxy-1-phenylpyrazol-4-yl)methylidene]-amino-2-methyl-3,4-dihydroquinazolin-4-one] | 18 |  |  |
| Cc1nn(-c2ccccc2)c(O)c1C=NN1C(=O)c2ccccc2NC1CO (stereo not drawn) [Compound 41, 3-[(5-hydroxy-3-methyl-1-phenylpyrazol-4-yl)-methylidene]amino-2-hydroxymethyl-1,2,3,4-tetrahydroquinazolin-4-one] |  |  | Inhibitory Ratio of Prostaglandin D2 (PGD2) Production (%) [2]: 80% |
| Cc1nn(-c2ccccc2Cl)c(O)c1C=Nn1c(C)nc2ccccc2c1=O [Compound 15, 3-{[1-(2-chlorophenyl)-3-methyl-5-hydroxypyrazol-4-yl]-methylidene}amino-2-methyl-3,4-dihydroquinazolin-4-one] | 20 | 53 |  |
| Cc1nc2ccccc2c(=O)n1N=Cc1c(CCCC(=O)O)nn(-c2ccccc2)c1O [Compound 12, 3-{[3-(3-carboxypropyl)-5-hydroxy-1-phenylpyrazol-4-yl]methylidene}amino-2-methyl-3,4-dihydroquinazolin-4-one] | 46 |  |  |
| Cc1nn(-c2ccc(Cl)cc2)c(O)c1C=Nn1c(C)nc2ccccc2c1=O [Compound 17, 3-{[1-(4-chlorophenyl)-3-methyl-5-hydroxypyrazol-4-yl]methylidene}amino-2-methyl-3,4-dihydroquinazolin-4-one] | 29 |  | inhibition at 10 µM [2]: 21% |
| Cc1nn(-c2cccc(Cl)c2)c(O)c1C=Nn1c(C)nc2ccccc2c1=O [Compound 16, 3-{[1-(3-chlorophenyl)-3-methyl-5-hydroxypyrazol-4-yl]-methylidene}amino-2-methyl-3,4-dihydroquinazolin-4-one] | 50 | 81 |  |
| Cc1nc2ccccc2c(=O)n1/N=C/c1c(C(F)(F)F)nn(-c2ccccc2)c1O [Compound 7, 3-[(5-hydroxy-1-phenyl-3-(trifluoromethyl)pyrazol-4-yl)-methylidene]amino-2-methyl-3,4-dihydroquinazolin-4-one] | 96 | 105 | inhibition at 10 µM [2]: 50% |
| Cc1nc2ccccc2c(=O)n1N=Cc1c(-c2ccc(C(C)(C)C)cc2)nn(-c2ccccc2)c1O [Compound 45] |  |  | Inhibitory Ratio of Prostaglandin D2 (PGD2) Production (%) [2]: 100% |
| Cc1nn(-c2ccccc2)c(O)c1/C=N/n1c(C(C)(C)C)nc2ccccc2c1=O [Compound 25, 2-tert-butyl-3-[(5-hydroxy-3-methyl-1-phenylpyrazol-4-yl)methylidene]amino-3,4-dihydroquinazolin-4-one] |  |  | inhibition at 10 µM [2]: 47% |
| Cc1nc2ccccc2c(=O)n1N=Cc1c(C23CC4CC(CC(C4)C2)C3)nn(-c2ccccc2)c1O [Compound 44] |  |  | Inhibitory Ratio of Prostaglandin D2 (PGD2) Production (%) [2]: 100% |
| CCOC(=O)CCCc1nn(-c2ccccc2)c(O)c1C=Nn1c(C)nc2ccccc2c1=O [Compound 11, 3-({3-[3-(ethoxycarbonyl)propyl]-5-hydroxy-1-phenylpyrazol-4-yl}methylidene)amino-2-methyl-3,4-dihydroquinazolin-4-one] | 45 |  |  |
| COCc1nc2ccccc2c(=O)n1N=Cc1c(C)nn(-c2ccccc2)c1O [Compound 29, 3-[(5-hydroxy-3-methyl-1-phenylpyrazol-4-yl)methylidene]-amino-2-methoxymethyl-3,4-dihydroquinazolin-4-one] |  |  | Inhibitory Ratio of Prostaglandin D2 (PGD2) Synthase (%) ([1]; Drug Concentration 10 μM): 20%; Inhibitory Ratio of Prostaglandin D2 (PGD2) Synthase (%) ([1]; Drug Concentration 30 μM): 40% |
| Cc1nn(C)c(O)c1/C=N/n1c(C)nc2ccccc2c1=O [Compound 14, 3-[(1,3-dimethyl-5-hydroxypyrazol-4-yl)methylidene]amino-2-methyl-3,4-dihydroquinazolin-4-one] | -2 | 27 |  |
| COc1ccc(-n2nc(C)c(C=Nn3c(C)nc4ccccc4c3=O)c2O)cc1 [Compound 19, 3-{[3-methyl-1-(4-methoxyphenyl)-5-hydroxypyrazol-4-yl]-methylidene}amino-2-methyl-3,4-dihydroquinazolin-4-one] | 6 | 50 |  |
| Cc1nn(-c2ccccc2)c(O)c1/C=N/n1c(-c2ccccc2)nc2ccccc2c1=O [Compound 24, 3-[(5-hydroxy-3-methyl-1-phenylpyrazol-4-yl)methylidene]-amino-2-phenyl-3,4-dihydroquinazolin-4-one] |  |  | inhibition at 10 µM [2]: 59% |
| Cc1ccc(-n2nc(C)c(C=Nn3c(C)nc4ccccc4c3=O)c2O)cc1 [Compound 18, 3-{[3-methyl-1-(4-methylphenyl)-5-hydroxypyrazol-4-yl]-methylidene}amino-2-methyl-3,4-dihydroquinazolin-4-one] | 23 | 37 |  |
| COc1cccc(-c2nc3ccccc3c(=O)n2N=Cc2c(C)nn(-c3ccccc3)c2O)c1 [Compound 31, 3-[(5-hydroxy-3-methyl-1-phenylpyrazol-4-yl)methylidene]-amino-2-(3-methoxyphenyl)-3,4-dihydroquinazolin-4-one] |  |  | Inhibitory Ratio of Prostaglandin D2 (PGD2) Synthase (%) ([1]; Drug Concentration 10 μM): 23%; Inhibitory Ratio of Prostaglandin D2 (PGD2) Synthase (%) ([1]; Drug Concentration 30 μM): 26% |
| Cc1nn(-c2ccccc2)c(O)c1C=NN1C(=O)c2ccccc2NC1CO (stereo not drawn) [Compound 40, 3-[(5-hydroxy-3-methyl-1-phenylpyrazol-4-yl)-methylidene]amino-2-hydroxymethyl-1,2,3,4-tetrahydroquinazolin-4-one] |  |  | inhibition at 10 µM [2]: 74% |
| COc1ccccc1-c1nc2ccccc2c(=O)n1N=Cc1c(C)nn(-c2ccccc2)c1O [Compound 32, 3-[(5-hydroxy-3-methyl-1-phenylpyrazol-4-yl)methylidene]-amino-2-(2-methoxyphenyl)-3,4-dihydroquinazolin-4-one] |  |  | Inhibitory Ratio of Prostaglandin D2 (PGD2) Synthase (%) ([1]; Drug Concentration 10 μM): 12%; Inhibitory Ratio of Prostaglandin D2 (PGD2) Synthase (%) ([1]; Drug Concentration 30 μM): 15% |
